Patent US20100284925A1, “Small Molecule Intervention for Obesity” (priority 2006, published 2010)

Tests used:
PLTP = assay: Serum PLTP protein by Western blot in normal C57BL/6J mice; assay type: in vivo; conditions: normal C57BL/6J mice, 0, 2, 5 and 10 mg/kg
Description: FIG. 10. Release of adiponectin and PLTP by preadipocytes and adipocytes, and in serum of normal mice. Preadipocytes (B and D) were treated with 2 μM of prieurianin and media collected after 36 hrs for Western blot analysis of either adiponectin (A and B) or PLTP (C and D). Alternatively, five days following differentiation, conditioned media of adipocyets (A and C) were collected for Western analysis. E. Serum of normal C57BL/6J mice given prieurianin or topotecan (0, 2, 5, and 10 mg/kg) was analyzed by Western blot for PLTP.

[1] = Diet-induced obese (DIO) C57BL/6J (B6) mice; assay type: in vivo
Description: FIG. 16. Effects of prieurianin in diet-induced obese C57Bl/6J mice. B6 mice were put on 60% kcal high fat diet for approximately 15 weeks and then divided into groups of 10 and were then treated with either 1 (green) or 3 (brown) mg/kg of prieurianin daily intraperitoneally for three weeks compared to untreated (blue) or vehicle-treated (red) controls.
FIG. 16A. Average weight changes of mice treated with prieurianin compared to controls through three weeks of treatment.
FIG. 16B. Average food consumption in B6 mice treated with prieurianin as in FIG. 16A.
FIG. 16C. Average weight changes in B6 mice treated with prieurianin on an “on-off” cyclical schedule for a total of 4 cycles described in the text. Results are the means S.E. of 10 animals per group, and the 3 mg/kg group with 20 mice.
The B6 mice were fed a 60% kcal high fat diet for approximately 15 weeks to gain weight and then treated with either 1 or 3 mg/kg of prieurianin intraperitoneally daily for 3 weeks. Mice continued to have access to the 60% kcal diet ad libitum during treatment.
To circumvent the problem of drug induced tolerance, a new protocol was developed where prieurianin treatment was stopped with the DIO mice, and the mice continued to be maintained on the high fat 60% kcal diet. Four weeks later, the mice were treated again with the following protocol: either 3 mg/kg of prieurianin for 5 days and followed by 5 days of drug holiday (no treatment), with the treatment repeated for 3 more cycles; or 5 mg/kg of prieurianin for 3 days and followed by 5 days of drug holiday, with the treatment repeated for 3 more cycles.

NIH-3T3/L1 preadipocytes [2] = assay: Proliferation of NIH-3T3/L1 preadipocytes (daily cell counting); assay type: cell-based
Description: FIG. 6. Inhibition of NIH-3T3/L1 preadipocytes proliferation by prieurianin. Cells were treated with various concentrations (0.5, 1, and 2 μM) of prieurianin and growth was assessed by counting daily for 7 days. Results are means±S.E. of triplicate experiments.

NIH-3T3/L1 preadipocytes [3] = assay: Differentiation of NIH-3T3/L1 preadipocytes into adipocytes (oil red O or Nile Red staining); assay type: cell-based
Description: FIG. 7. […] NIH-3T3/L1 cells were induced into differentiation and simultaneously treated with 2 μM of prieurianin. Differentiated cells were stained with oil red O—FIG. 7A, undifferentiated control.
Histogram represents A510 nm absorbance of oil red O stain isopropanol extracts from cells. Results are means±S.E. of triplicate experiments.
(§1) FIG. 19. Effects of bufalin on preadipocyte differentiation, and dedifferentiation/delipidation in adipo-cytes. NIH-3T3/L1 cells were induced into differentiation and simultaneously treated with either 1 μM of bufalin or 2 μM of prieurianin. Differentiated cells were stained with Nile Red. Alternatively, preadipocytes were induced into differentiation and five days following differentiation, cells were treated with either 1 μM of bufalin or 2 μM of prieurianin for an additional five days and followed by staining with Nile Red. Stained cells were evaluated by fluorescence microscopy.
To determine the effects of prieurianin on the differentiation of preadipocytes to adipocytes, the NIH-3T3/L1 preadipocytes were treated with or without the drug at the same time when induction of differentiation was initiated.

[4] = system: differentiated NIH-3T3/L1 adipocytes; assay: Loss of lipid-positive differentiated adipocytes (oil red O, A510; Nile Red); assay type: cell-based
Description: FIG. 8. Prieurianin induced loss of differentiated adipocytes. NIH-3T3/L1 preadipocytes were induced into differentiation. Five days following differentiation, cells were treated with various concentrations (0.5, 1, and 2 μM) of prieurianin for an additional five days and followed by staining with oil red O. Micrographs were obtained from representatives of triplicate experiments. Isopropanol extracts of positively stained cells were quantified spectrophotometrically at 510 nm as shown in histogram on the right. Results are means±S.E. of triplicate experiments.
as §1
To assess whether prieurianin has any effect on the differentiated adipocytes, the preadipocytes were allowed to differentiate into adipocytes and then were further cultured for about five days before treating the adipocytes with prieurianin for an additional five to six days, followed by oil red O staining for the presence of lipid accumulating adipocytes.

C/EBPα = C/EBPα response element luciferase reporter in L1 preadipocytes; assay type: cell-based; conditions: prieurianin 2 μM
Description: FIG. 18. Effects of prieurianin on C/EBPα and β and PPARγ mediated transcription in adipogenesis. Response elements corresponding to C/EBPα and β and PPARγ are cloned into the pGL3 basic luciferase reporter plasmid. L1 preadipocytes were contransfected with the reporter plasmid either in the presence or the absence of the corresponding transcription factors cloned into expression vector, followed by treatment with 2 μM of prieurianin. Cells were harvested for luciferase assay 15-24 hrs later. Results are means±S.E. of triplicate experiments.

[5] = Observation of overt toxicity in treated animals; assay type: in vivo; conditions: animals given the drug for the duration of the experiments

Structure (SMILES): C=C1[C@@H]([C@@]2(C)[C@@H](OC(C)=O)CC(=O)O[C@](C)(COC(C)=O)[C@@H]2C(=O)OC)[C@@H](OC=O)[C@H](OC(=O)[C@H](O)[C@H](C)CC)[C@@]2(C)[C@H](c3ccoc3)CC(=O)[C@]12O [prieurianin]
- serum PLTP protein levels (PLTP): a rise in the serum PLTP protein levels
- decrease in food consumption ([1]; 1 or 3 mg/kg i.p. daily): 70-80%
- weight loss of total body weight ([1]; 1 or 3 mg/kg i.p. daily, within seven days of treatment): up to 10%
- body weight course after attained weight loss ([1]; daily treatment for 3 weeks): gradual increase in body weight after week two
- decrease in body weight ([1]; on-off cyclical schedule, 3 or 5 mg/kg, 4 cycles): up to 20%
- reduction of food consumption ([1]; on-off cyclical treatment protocol): approximately 40%
- proliferation of preadipocytes (NIH-3T3/L1 preadipocytes [2]; 0.5, 1 and 2 μM, 7 days): inhibited the proliferation of the NIH-3T3/L1 preadipocytes in a dose-dependent manner
- inhibition at 2 µM (NIH-3T3/L1 preadipocytes [2]; Mus musculus, NIH3T3, 168 h, 2 μM, day 7): 50%
- preadipocytes differentiation (NIH-3T3/L1 preadipocytes [3]; 2 μM, in the absence of staurosporine): almost completely inhibited preadipocytes differentiation
- differentiation of preadipocytes into lipid accumulating adipocytes (NIH-3T3/L1 preadipocytes [3]; treated at induction of differentiation, oil red O): dose-dependently prevented the differentiation of preadipocytes
- number of lipid positive cells (oil red O stain A510 absorbance) ([4]; 2 μM): almost absent and reduced to a level comparable to the undifferentiated control
- number of oil red O stained cells ([4]; adipocytes treated five days after differentiation, 0.5, 1 and 2 μM): profound dose-dependent reduction in the number of oil red O stained cells
- transactivation potential of C/EBPα (C/EBPα): inhibits the transactivation potential
- overt toxicity [5]: no overt toxicity was observed
